In US20250281446A1, “COMPOSITIONS, SYSTEMS, AND METHODS FOR TREATING CANCER IN STANDARD OF CARE AND/OR PROFIBROTIC CHEMOTHERAPEUTIC AGENT-NAÏVE PATIENTS USING TUMOR TREATING FIELDS AND CHEMOTHERAPEUTIC AGENTS” (Novocure GmbH, priority 2024, published 2025):

How the values were obtained:
[1] = test system: platinum-resistant ovarian cancer (PROC); assay: Randomized phase 3 study ENGOT-ov50/GOG-3029/INNOVATE-3 (NCT03940196): TTFields therapy with weekly paclitaxel vs weekly paclitaxel alone; format: in vivo, human
Text: This randomized phase 3 study investigated TTFields therapy with paclitaxel (TTFields+PTX) vs paclitaxel (PTX) in patients with platinum-resistant ovarian cancer (PROC).
To evaluate the safety and efficacy of TTFields therapy with weekly paclitaxel compared to weekly paclitaxel alone in PROC, the Phase 3 study design shown in FIG. 1 was utilized. ENGOT-ov50/GOG-3029/INNOVATE-3 (NCT03940196) enrolled adults with PROC, ≤5 prior lines of therapy (LOT), ≤2 prior LOT following platinum-resistance, and ECOG 0-1. Patients received TTFields (200 kHz; ≥18 hours/day)+PTX (80 mg/m^2) weekly or PTX. Primary endpoint was overall survival (OS). 558 patients were randomized to receive TTFields+PTX (n=280) or PTX (n=278) March 2019 to November 2021.
Patients were heavily pretreated in the ITT population, as 24.4% of patients had received 4+prior lines of therapy (LOT), and 65.9% had received prior bevacizumab. In the overall intention-to-treat population, TTFields therapy median duration was 15.9 (0.1-159.7) weeks.
Innovate-3 study excluding patients that had received doxorubicin prior to TTFields+Paclitaxel or Paclitaxel
This Example contains further data related to the study of Example 1. FIGS. 10-11 include data of PROC patients that had received doxorubicin prior to treatment or were Doxorubicin-/PLD-naïve and which received treatment comprising TTFields plus Paclitaxel or Paclitaxel alone. With Doxorubicin treatment prior to use, overall survival was 10.97 months with TTFields and 13.21 months without TTFields. […] In addition, without prior use of doxorubicin/PLD, the hazard ratio for TTFields was 0.593 with a p value of 0.005.

[2] = test system: tumor; assay: Preclinical data (unpublished): tumor fibrosis and tissue conductivity

SMILES | overall survival ([1]; Doxorubicin-/PLD-naïve group without prior use of doxorubicin (Example 2, FIGS. 10-11)) | overall survival, post-hoc analysis ([1]; PLD-naïve subgroup (Example 1, FIG. 7), TTFields+PTX n=113, PTX n=88) | median overall survival (OS) ([1]; overall ITT population, PROC patients, PTX 80 mg/m^2 weekly, TTFields 200 kHz, ≥18 hours/day) | overall survival ([1]; patients with Doxorubicin treatment prior to use (Example 2, FIG. 10)) | tissue conductivity [2] | tumor fibrosis [2]
CC(=O)O[C@H]1C(=O)[C@@]2(C)[C@H]([C@H](OC(=O)c3ccccc3)[C@]3(O)C[C@H](OC(=O)[C@H](O)[C@@H](NC(=O)c4ccccc4)c4ccccc4)C(C)=C1C3(C)C)[C@]1(OC(C)=O)CO[C@@H]1C[C@@H]2O [PTX, paclitaxel] | 11.93 months | 11.7 months | 11.9 months | 13.21 months |  | 
COc1cccc2c1C(=O)c1c(O)c3c(c(O)c1C2=O)C[C@@](O)(C(=O)CO)C[C@@H]3O[C@H]1C[C@H](N)[C@H](O)[C@H](C)O1 [doxorubicin] |  |  |  |  | changes tissue conductivity | induces tumor fibrosis
